Values of other authors in US20040081632A1, “Novel antiperspirant/deodorant active for no white residue sticks and soft solids” (priority 2002, published 2004).

Settings: neat organic solvent

Row | RI | Molecule
1 | 1.403 | 1-methyl 2-propanol
2 | 1.402 | COCCO [2 methoxy ethanol]
3 | 1.411 | COC(C)CCO (stereo not drawn) [3 methoxy butanol]
4 | 1.430 | CC(O)CO (stereo not drawn) [propylene glycol]
5 | 1.454 | CC(O)COC(C)COC(C)CO (stereo not drawn) [tripropylene glycol]

Row | Molecule | RI
6 | CCOCCO [2 ethoxy ethanol] | 1.407
